Measured values as given in the NIST ThermoML archive (doi:10.1016/j.jct.2012.07.018).

What was measured:
[1] = molar heat capacity at constant pressure; conditions: Liquid, Flow calorimetry
[2] = molar heat capacity at constant pressure; xn = mol fraction of the nth substance listed; conditions: 313.15 K, Liquid, Flow calorimetry

C1CCCCC1 [cyclohexane]
molar heat capacity at constant pressure [J/K/mol], [1]
Conditions	100 kPa	5000 kPa	10000 kPa	15000 kPa	20000 kPa
293.15 K	154.1	152	151.1	149.9	148.7
313.15 K	162.7	160.7	158.8	157.3	155.9
333.15 K	171	169.1	166.8	164.9	163.4

C1CCCCC1 [cyclohexane] + C=CCCCC
[2], x1 = 1
Conditions	molar heat capacity at constant pressure [J/K/mol]
100 kPa	162.7
5000 kPa	160.7
10000 kPa	158.8
15000 kPa	157.3
20000 kPa	155.9

C1CCCCC1 [cyclohexane] + CCO
molar heat capacity at constant pressure [J/K/mol], [2]
Conditions	x1 = 0.1	x1 = 0.1999	x1 = 0.2999	x1 = 0.4	x1 = 0.5002	x1 = 0.6	x1 = 0.7002	x1 = 0.8	x1 = 0.8999	x1 = 1
100 kPa	127.8	134.2	140.2	146.9	152.7	158.2	163.3	167.6	169.9	162.7
5000 kPa	126.5	132.9	138.8	145.2	151	155.9	161	165.2	167.3	160.7
10000 kPa	125	131	137.1	143.1	149	154	159	163.1	165.5	158.8
15000 kPa	123.7	130.2	135.7	141.3	147	152.9	157.6	161.3	163.3	157.3
20000 kPa	122.8	129.5	134.9	140.7	146.6	149	156.3	160.5	162.5	155.9

CCO [ethanol]
[1], 313.15 K
Conditions	molar heat capacity at constant pressure [J/K/mol]
100 kPa	119.2
5000 kPa	118
10000 kPa	116.8
15000 kPa	115.5
20000 kPa	114.9

CCO [ethanol] + C1CCCCC1
[2], x2 = 0
Conditions	molar heat capacity at constant pressure [J/K/mol]
100 kPa	119.2
5000 kPa	118
10000 kPa	116.8
15000 kPa	115.5
20000 kPa	114.9

CCO [ethanol] + C=CCCCC
[2], x2 = 0
Conditions	molar heat capacity at constant pressure [J/K/mol]
100 kPa	119.2
5000 kPa	118
10000 kPa	116.8
15000 kPa	115.5
20000 kPa	114.9

C=CCCCC [hex-1-ene]
molar heat capacity at constant pressure [J/K/mol], [1]
Conditions	100 kPa	5000 kPa	10000 kPa	15000 kPa	20000 kPa
273.15 K	177.2	170.8	168.3	166.3	165.3
293.15 K	184.8	178.6	175.1	172.6	172.1
313.15 K	190.7	186.6	182.9	180.4	178.2
